The source of these data is patent US4232150A, “Oligosaccharide precursors to substituted O-α-D and O-β-D-multigalactopyranosyl and glucopyranosyl 1→4 and 1→6 galactopyranosyl 1→6α-D-glucopyranoses” (American Cyanamid Company, priority 1979, dated 1980).

Experiment [1] deals with complement system. The following applies: cited from earlier work.
Experiment [2] concerns hereditary angioneurotic edema. The following applies: in vivo; cited from earlier work.
Experiment [3] has as its target T1, activated human C1 (Homo sapiens, UniProt P09871).
T1 construct: functional test of fluid-phase human C2 destruction in presence of C4
The experiment can be described thus: Test Code 026 (C1 inhibitor). In kind it is biochemical. The conditions noted are these: serial twofold dilution assay; higher well number indicates higher activity. An excerpt:
(§1) An active inhibitor protects C2 from C1 and C4; (ii) Test Cod3 035 (3-C9 inhibitor)--This test determines the ability of the late components of human complement (C3-C9) to lyse EAC 142 in the presence of appropriate dilutions of the test compound. An active inhibitor protects EAC 142 from lysis by human C3-C9; (iii) Test Code 036 (C-Shunt inhibitor)--In this test human erythrocytes rendered fragile are lysed in autologous serum via the shunt pathway activated by cobra venom factor in the presence of appropriate dilutions of the test compound. Inhibition of the shunt pathway results in failure of lysis; (iv) Forssman Vasculitis Test--Here, the well known complement dependent lesion, Forssman vasculitis, is produced in guinea pigs by intradermal injection of rabbit anti-Forssman antiserum. The lesion is measured in terms of diameter, edema and hemorrhage and the extent to which a combined index of these is inhibited by prior intraperitoneal injection of the test compound at 200 mg/kg is then reported, unless otherwise stated; (v) Forssman Shock Test--Lethal shock is produced in guinea pigs by an i.v. injection of anti-Forssman antiserum and the harmonic mean death time of treated guinea pigs is compared with that of simultaneous controls; (vi) Complement Level Reduction Test--In this test, the above dosed guinea pigs, or others, are bled for serum and the complement level is determined in undiluted serum by the capillary tube method of U.S. Pat. No. 3,876,376 and compared to undosed control guinea pigs; (vii) Cap 50 Test--Here, appropriate amounts of the test compound are added to a pool of guinea pig serum in vitro, after which the undiluted serum capillary tube assay referred to above is run. The concentration of compound inhibiting 50% is reported;
(§2) **Activity in wells, a serial dilution assay; higher well number indicate
(§3) higher activity. The serial dilutions are twofold

Experiment [4] relates to late components of human complement (C3-C9). Briefly: Test Code 035 (C3-C9 inhibitor; C-Late), lysis of EAC 142. It is filed as cell-based. The following applies: serial twofold dilution assay; higher well number indicates higher activity.
Source text: as §1, §2, §3

For experiment [5], the system named is shunt pathway activated by cobra venom factor. The experiment can be described thus: Test Code 036 (C-Shunt inhibitor), lysis of human erythrocytes by cobra venom factor. In kind it is cell-based. The conditions noted are these: serial twofold dilution assay; higher well number indicates higher activity.
Source text: as §1, §2, §3

Experiment [6] has as its system human serum complement. The following applies: in vitro and in vivo; cited from earlier work.

Where a name gives a salt, the structure may show the parent alone.

T1 sequence (P09871 16-688): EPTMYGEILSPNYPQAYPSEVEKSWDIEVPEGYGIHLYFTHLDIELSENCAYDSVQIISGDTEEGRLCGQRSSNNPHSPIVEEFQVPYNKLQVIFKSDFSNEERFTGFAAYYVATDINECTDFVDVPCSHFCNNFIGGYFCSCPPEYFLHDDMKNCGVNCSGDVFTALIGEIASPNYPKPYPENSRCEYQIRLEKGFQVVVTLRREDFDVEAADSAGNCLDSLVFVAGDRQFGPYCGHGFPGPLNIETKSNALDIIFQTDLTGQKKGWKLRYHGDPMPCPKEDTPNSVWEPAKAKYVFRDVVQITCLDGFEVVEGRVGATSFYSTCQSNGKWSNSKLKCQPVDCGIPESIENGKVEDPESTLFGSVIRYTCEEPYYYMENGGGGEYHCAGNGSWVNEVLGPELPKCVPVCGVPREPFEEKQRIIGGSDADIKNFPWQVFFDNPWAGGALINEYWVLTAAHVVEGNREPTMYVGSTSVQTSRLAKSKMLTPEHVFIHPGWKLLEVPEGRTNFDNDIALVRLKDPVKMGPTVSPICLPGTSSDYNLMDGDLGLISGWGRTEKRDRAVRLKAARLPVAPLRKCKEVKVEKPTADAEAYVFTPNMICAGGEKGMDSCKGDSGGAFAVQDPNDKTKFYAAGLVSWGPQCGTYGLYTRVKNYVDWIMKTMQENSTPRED
T1 sequence (P00736 18-705 partner): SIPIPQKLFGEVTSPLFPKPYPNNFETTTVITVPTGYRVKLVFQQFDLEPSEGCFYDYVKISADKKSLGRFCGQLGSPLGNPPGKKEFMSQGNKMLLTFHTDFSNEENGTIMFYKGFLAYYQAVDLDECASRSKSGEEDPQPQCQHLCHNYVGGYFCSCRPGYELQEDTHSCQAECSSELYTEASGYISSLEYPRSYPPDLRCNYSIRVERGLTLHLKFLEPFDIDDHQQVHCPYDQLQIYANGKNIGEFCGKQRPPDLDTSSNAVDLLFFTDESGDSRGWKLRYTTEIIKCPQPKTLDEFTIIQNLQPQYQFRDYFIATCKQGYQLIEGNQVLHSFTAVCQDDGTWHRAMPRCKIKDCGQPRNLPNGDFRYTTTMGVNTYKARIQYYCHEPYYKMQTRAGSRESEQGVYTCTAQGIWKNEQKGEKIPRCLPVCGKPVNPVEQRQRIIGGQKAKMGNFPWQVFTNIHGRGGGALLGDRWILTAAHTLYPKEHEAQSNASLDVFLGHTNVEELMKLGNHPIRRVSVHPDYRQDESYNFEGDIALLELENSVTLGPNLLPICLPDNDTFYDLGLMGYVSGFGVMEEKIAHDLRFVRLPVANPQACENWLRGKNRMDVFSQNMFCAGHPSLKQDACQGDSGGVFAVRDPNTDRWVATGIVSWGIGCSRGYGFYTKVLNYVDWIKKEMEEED
T1 sequence (P02745 23-245 partner): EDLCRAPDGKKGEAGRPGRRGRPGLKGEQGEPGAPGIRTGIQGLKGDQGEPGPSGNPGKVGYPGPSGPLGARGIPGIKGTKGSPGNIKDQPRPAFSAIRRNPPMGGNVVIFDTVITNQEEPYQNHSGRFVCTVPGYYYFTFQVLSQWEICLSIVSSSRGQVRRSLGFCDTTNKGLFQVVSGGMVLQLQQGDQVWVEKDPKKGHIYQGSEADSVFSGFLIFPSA
T1 sequence (P02746 28-253 partner): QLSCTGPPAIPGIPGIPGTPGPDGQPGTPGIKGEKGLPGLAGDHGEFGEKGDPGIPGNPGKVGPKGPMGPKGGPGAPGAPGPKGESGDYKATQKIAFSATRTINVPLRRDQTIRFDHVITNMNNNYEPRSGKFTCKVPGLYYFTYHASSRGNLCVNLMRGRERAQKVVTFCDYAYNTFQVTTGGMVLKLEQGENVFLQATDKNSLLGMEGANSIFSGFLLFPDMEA
T1 sequence (P02747 29-245 partner): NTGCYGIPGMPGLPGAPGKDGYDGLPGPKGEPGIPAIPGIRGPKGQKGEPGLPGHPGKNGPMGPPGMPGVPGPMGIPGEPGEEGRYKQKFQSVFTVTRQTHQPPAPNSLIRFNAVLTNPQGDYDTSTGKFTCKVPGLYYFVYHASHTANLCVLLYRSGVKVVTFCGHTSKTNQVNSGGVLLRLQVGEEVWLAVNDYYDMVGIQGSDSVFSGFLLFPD

Turning to `Nc1ccc2cc(S(=O)(=O)[O-])cc(O)c2c1N=Nc1ccc(NC(=O)Nc2ccc(N=Nc3c(N)ccc4cc(S(=O)(=O)[O-])cc(O)c34)c(S(=O)(=O)[O-])c2)cc1S(=O)(=O)[O-].[Na+].[Na+].[Na+].[Na+]` [chlorazol fast pink, 3,3'-ureylenebis[6-(2-amino-8-hydroxy-6-sulfo-1-naphthylazo)benzenesulfonic acid], tetrasodium salt], the anticomplementary effect result in experiment [1] is recorded as “anticomplementary effect”.
With `NCCCCCC(=O)O` [epsilon-aminocaproic acid], in experiment [2], the “success in the treatment of hereditary angioneurotic edema” value is “used with success in the treatment of hereditary angioneurotic edema”.
For the compound `O=S(=O)(O)OC[C@H]1O[C@H](OC[C@H]2O[C@@H](OC[C@H]3O[C@H](OC[C@H]4O[C@H](OS(=O)(=O)O)[C@H](OS(=O)(=O)O)[C@@H](OS(=O)(=O)O)[C@@H]4OS(=O)(=O)O)[C@H](OS(=O)(=O)O)[C@@H](OS(=O)(=O)O)[C@H]3OS(=O)(=O)O)[C@H](OS(=O)(=O)O)[C@@H](OS(=O)(=O)O)[C@@H]2OS(=O)(=O)O)[C@H](OS(=O)(=O)O)[C@@H](OS(=O)(=O)O)[C@H]1OS(=O)(=O)O` [gal →1α,6 glc →1β,6 gal →1α,6 tetradecakis (H-sulfate), tetr] [Gal 1α,6 glc 1β,6 gal 1α,6 glc tetradecakis (H-sulfate), tetradecasalt with trimethylamine], the “C1 026* Wells” value in experiment [3] is recorded as “+9 Wells”. In addition, in experiment [4], the “C-Late 035* Wells” value is “+1 Wells”. Further, the “Shunt Inhibition 036* Wells” value in experiment [5] is listed as “+5 Wells”.
In the same order, the values of `O=S(=O)(O)OC[C@H]1O[C@H](OC[C@H]2O[C@@H](OC[C@H]3O[C@H](OC[C@H]4O[C@H](OS(=O)(=O)O)[C@H](OS(=O)(=O)O)[C@@H](OS(=O)(=O)O)[C@@H]4OS(=O)(=O)O)[C@H](OS(=O)(=O)O)[C@@H](OS(=O)(=O)O)[C@H]3OS(=O)(=O)O)[C@H](OS(=O)(=O)O)[C@@H](OS(=O)(=O)O)[C@@H]2OS(=O)(=O)O)[C@H](OS(=O)(=O)O)[C@@H](OS(=O)(=O)O)[C@H]1OS(=O)(=O)O` [gal →1α,6 glc → 1β,6 gal →1α,6 glc tetradecakis (H-sulfate),] [Gal 1α,6 glc 1β,6 gal 1α,6 glc tetradecakis (H-sulfate), tetradecasodium salt] are “+9 Wells”, “+1 Wells” and “+6 Wells”.
`NC[C@H]1CC[C@H](C(=O)O)CC1` [tranexamic acid]: the “success in the treatment of hereditary angioneurotic edema” value in experiment [2] is recorded as “used with success in the treatment of hereditary angioneurotic edema”.
For heparin, in experiment [1], the anticomplementary effect result is given as “anticomplementary effect”.
For pentosan-polysulfoester, the “anticomplementary activity on human serum, as judged by the reduction in total hemolytic complement activity” value in experiment [6] is “anticomplementary activity on human serum, both in vitro and in vivo”.
